# Several values for one entry are separate records, joined by “and”; a condition that tells them apart may be missing. Identical values can stand only once.
# Legend:
# MPO = experiment: Study DG-031-204: MPO in ionomycin-stimulated whole blood; format: in vivo, human; conditions: for Stimulated MPO from whole blood (% change from baseline, whole blood, WBC corrected, 60 minute), mean response: after 4 weeks of DG-031 administration
# Description: (§1) An additional single site, open label study was carried out to obtain biomarker and safety data on additional DG-031 doses (i.e., 1000 mg and 1500 mg). This study examined the safety, tolerability and dose-related effects of DG-031 on inflammatory biomarkers including: LTB4, hsCRP, and MPO. A total of 119 patients with a prior history of CAD and MI were randomized to receive either 1000 mg DG-031 (500 mg BID) or 1500 mg DG-031 (500 mg TID) daily for 4-6 weeks. Treatment with DG-031 in addition to the subject's standard care, medication, and treatment, was prescribed by the patient's cardiologist. A majority of the subjects received statin therapy before, during and after the study. Follow-up assessments were performed 2 weeks after the end of study drug administration.
# The biomarkers were analyzed as described in Example 1. Statistical analysis of the data was carried out using a one-sample t-test on change from baseline with a two-sided nominal significance level of 0.050. Biomarker concentrations were log-transformed and a simple last observation carried forward (LOCF) scheme was used to impute missing observations.
# Plasma MPO concentration was measured weekly. MPO measurements in ionomycin-stimulated whole blood were also measured in a subset of patients at 4 weeks.
# [1] = Study DG-031-204: serum creatinine; format: in vivo, human; conditions: both 500 mg BID and 500 mg TID groups
# Description: as §1
# (§2) Liver function tests (AST, ALT, GGT) were assessed weekly during study drug administration and two weeks after dosing. […] Serum creatinine (Cr) was measured weekly during study drug administration and two weeks after dosing. In both the 500 mg BID and 500 mg TID treatment groups, mean serum Cr concentrations increased 4-5% relative to baseline levels. At the 2-week follow up visit, mean serum Cr returned to baseline in the cohort treated for 4 weeks, but remained elevated in the group treated for 6 weeks. Creatine kinase (CK) measurements were obtained weekly during study drug administration and two weeks after dosing.
# [2] = Study DG-031-204: liver function tests (AST, ALT, GGT); format: in vivo, human; conditions: 500 mg BID or TID
# Description: as §1, §2
# [3] = Clinical studies in CAD patients: safety and tolerability; format: in vivo, human
# Description: Previous clinical studies administered the dosages of DG-031 either in a single dose (QD) or twice a day (BID)
# A total daily dose of 750 mg, dosed at 250 mg TID, provides a preferable PK/PD relationship (inhibition of LTB4) and efficacy in terms of lowering other biomarkers of MI risk (i.e. MPO and CRP). In addition, a total daily dose of 1000 mg, dosed at 500 mg BID, also provides a preferable PK and PD time course (inhibition of LTB4) and efficacy in terms of lowering other biomarkers of MI risk (i.e. MPO). Patient compliance is an important consideration when designing a dosing schedule and patients are more likely to comply with a twice a day dosing (BID) than three times a day doing (TID).
# LTB4 = experiment: Study DG-031-204: ionomycin-stimulated LTB4 in whole blood; format: in vivo, human; conditions: for Stimulated LTB4 (% change from baseline, whole blood, WBC corrected, 15 minute): after 4 weeks
# Description: Briefly, the cell pellets from the Ficoll gradient were harvested and the red blood cells were subsequently lysed in 0.165 M NH4CL for 10 minutes on ice. After washing with PBS, neutrophils were counted and plated at 2×10^6 cells/ml in 4 ml cultures of 15% Fetal calf serum (FCS) (GIBCO BRL) in RPMI-1640 (GIBCO BRL). The cells were then stimulated with maximum effective concentration of ionomycin (1 μM). At 0, 15, 30, 60 minutes post ionomycin addition 600 μl of culture medium was aspirated and stored at −80° C. for the measurement of LTB4 release as described below. The cells were maintained at 37° C. in a humidified atmosphere of 5% CO2/95% air. All samples were treated with indomethasine (1 μM) to block the cyclooxygenase enzyme. The experimental conditions are described above.
# LTB4 Immunoassay Assay Design was used to quantitate LTB4 concentration in supernatant from cultured ionomycin stimulated neutrophils. The assay used is based on the competitive binding technique in which LTB4 present in the testing samples (200 μl) competes with a fixed amount of alkaline phosphatase-labelled LTB4 for sites on a rabbit polyclonal antibody. During the incubation, the polyclonal Ab becomes bound to a goat anti-rabbit Ab coated onto the microplates. Following a wash to remove excess conjugate and unbound sample, a substrate solution is added to the wells to determine the bound enzyme activity. The color development is stopped and the absorbance is read at 405 nm. The intensity of the color is inversely proportional to the concentration of LTB4 in the sample. Each LTB4 measurement using the LTB4 Immunoassay, was done in duplicate. […]
# The biomarkers were analyzed as described in Example 1. […]
# Serum was collected weekly for determination of LTB4 concentration in response to the treatment with DG-031. […] Stimulated LTB4 effects measured in study DG-031-204, as shown in the raw data set out in Table 12, appear consistent with projections from the exposure-response analysis based on data from studies DG-031-201 and DG-031-203. […]
# [4] = system: MPO release, human whole blood; experiment: In vitro MPO release in human whole blood after ionomycin stimulation; format: cell-based
# Description: Neutrophils and other cells in human whole blood respond in vitro to activation by a calcium ionophore (e.g., ionomycin), with an increase in LTB4 production and with coupled release of MPO stimulated in part by LTB4 production in the assay. The effect of DG-031 on the capacity for production of LTB4 in vitro after ionomycin stimulation was evaluated at concentrations ranging from 0.1 μM up to 240 μM.
# Blood samples collected from the clinical study described in Example 2 were evaluated assuming that the ex vivo response profile in clinical samples parallels the in vitro response over the entire concentration range, 250 mg TID dosing which maintains concentrations above 2-3 μg/ml (˜7 μM) should maintain a 30% or greater reduction of capacity for LTB4 production at all times. Peak concentrations of DG-031 with 250 mg TID dosing were about 10 μg/ml (28 μM) and should be associated with about 65% reduction of capacity for LTB4 production. The typical patient's pharmacodynamic response was expected to fluctuate between 30% and 65% reduction of capacity for LTB4 production over the course of a dosing interval.
smiles,measurement,setting,value
"O=C(O)[C@@H](c1ccc(OCc2ccc3ccccc3n2)cc1)C1CCCC1 [DG-031, (R)-(+)-alpha-cyclopentyl-4-(2-quinolinylmethoxy)-Benzeneacetic acid]",Stimulated whole blood MPO concentrations,"MPO; 500 mg BID or TID, 4 weeks",decreased
same,"Stimulated MPO from whole blood (% change from baseline, whole blood, WBC corrected, 60 minute), mean response",MPO; 1000 mg (500 mg BID),−19%
same,"Stimulated MPO from whole blood (% change from baseline, whole blood, WBC corrected, 60 minute), mean response",MPO; 1500 mg (500 mg TID),−29%
same,Increase of mean serum Cr concentrations relative to baseline,[1],4-5%
same,"Mean liver function tests (AST, ALT, GGT)",[2],No adverse trends
same,Safety and tolerability,"[3]; 250 mg QD, 375 mg QD, 250 mg BID, 375 mg BID, 250 mg TID",safe and well tolerated
same,Safety and tolerability,"[3]; total daily doses 250, 500, 750 mg, 128 days",safe and well tolerated
same,"Reduction of LTB4 levels, ionophore-stimulation assay",LTB4; 500 mg BID,35%
same,"Stimulated LTB4 (% change from baseline, whole blood, WBC corrected, 15 minute)",LTB4; 1000 mg (500 mg BID),−44%
same,"Stimulated LTB4 (% change from baseline, whole blood, WBC corrected, 15 minute)",LTB4; 1500 mg (500 mg TID),−28%
same,Concentration at which MPO release is maximally inhibited in vitro,[4],about 6 μM and ~2 μg/ml

# Source: patent US20090030037A1, “Sustained Release Formulation and Dosing Schedules of Leukotriene Synthesis Inhibitor for Human Therapy” (deCODE Genetics ehf., priority 2005, published 2009)
